Data: patent publication US20260344670A1, “BIXLOZONE MIXTURES WITH PETHOXAMID” (FMC CORPORATION, priority 2022, published 2026)

Assays:
Assay type in all cases: in vivo
weeds [1] = assay: Example 3: pre-emergence weed control on corn at relatively high application rates of pethoxamid (Tables 8-11); details: 1200 g/ha pethoxamid
Source text: [formula] • where ppm=milligrams of active ingredient (=a.i.) per liter of spray mixture X=% action by component A using p ppm of active ingredient Y=% action by component B using q ppm of active ingredient. If the ratio R defined as the action actually observed (O) divided by the expected action (E) is >1 then the action of the combination is superadditive, i.e. there is a synergistic effect. For a more detailed description of the Colby formula, see Colby, S. R. “Calculating Synergistic and Antagonistic Responses of Herbicide Combination”, Weeds, Vol. 15, pages 20-22; 1967; see also Limpel et al., Proc. NEWCC 16:48-53 (1962).
As used herein, rating timings correspond to the following: A1=weed assessment at BBCH 11-12; A2=4 weeks after the application; A3=when ZEAMX crop reaches BBCH 18 (row closure); and A4=BBCH 51-59 of the ZEAMX crop.
The herbicidal compounds bixlozone and pethoxamid were applied in a variety of forms and at a variety of amounts, application rates, and normalities. Efficacy of the herbicidal compositions was evaluated with reference to a scale of 0% to 100% in comparison with untreated control plots. 0 means no damage to the harmful plants and 100 means complete destruction of the harmful plants. Plants per square meter is indicated by “pl/m^2”, and grams per hectare is indicated by “g/ha”. […]

weeds [2] = assay: Example 4: pre-emergence weed control on corn at relatively medium application rates of pethoxamid (Table 12); details: 800 g/ha pethoxamid
Protocol: (§1) The herbicidal compounds bixlozone and pethoxamid were applied in a variety of forms and at a variety of amounts, application rates, and normalities. Efficacy of the herbicidal compositions was evaluated with reference to a scale of 0% to 100% in comparison with untreated control plots. 0 means no damage to the harmful plants and 100 means complete destruction of the harmful plants. Plants per square meter is indicated by “pl/m^2”, and grams per hectare is indicated by “g/ha”. The acronym “EC” means emulsifiable concentrate (a liquid, homogenous formulation to be applied as an emulsion after dilution with water); “SC” means suspension concentrate (a stable suspension of active ingredient(s) with water as the fluid); “ZC” refers to a mixed formulation of CS and SC (a stable suspension of capsules and active ingredient(s) in a fluid, normally intended for dilution with water before use).
(§2) Various forms, compositions, and mixtures of bixlozone and pethoxamid were applied to corn before emergence. […] Mixtures of bixlozone with 800 g/ha pethoxamid improved weed spectrum on a range of broad leaf weeds (e.g., CHEAL and ABUTH) and grasses (e.g., ECHCG, DIGSA, and SETVI). Combinations of bixlozone and pethoxamid in pre-emergence applications were very safe with no clear pethoxamid rate effect.

weeds [3] = assay: Example 5: pre-emergence weed control on corn at relatively low application rates of pethoxamid (Table 13); details: 300 g/ha pethoxamid
Protocol: as §1
as §2, with “300” for “800”, “SOLNI” for “CHEAL”, “ABUTH).” for “ABUTH) and grasses (e.g., ECHCG, DIGSA, and SETVI).”

## CC1(C)CON(Cc2ccc(Cl)cc2Cl)C1=O [bixlozone]
Weeds [1]
  efficacy (in words): minimal differences in performance between SC and CS were observed, except on CHEAL and ECHCG
Weeds [2]
  efficacy (in words): minimal differences in performance between SC and CS were observed, except on CHEAL and ABUTH
Weeds [3]
  efficacy (in words): minimal differences in performance between SC and CS were observed, except on POLSS, SOLNI, ABUTH, and ECHCG
